IC50 data for 22 molecules are collected here from US20260297080A1, “BICYCLIC COMPOUNDS AS CDK INHIBITORS” (BeOne Medicines I GmbH, priority 2022, published 2026).

Each structure is given as a SMILES string. pIC50: −log10 of the molar value.

One experiment concerns the target CDK1/Cyclin B1 (Homo sapiens, UniProt P06493). Kind of experiment: CDK1/Cyclin B1 Biochemical Assay (TR-FRET), 0.015 mM ATP. To be noted: 0.15 μM Rb (Ser780)-biotin substrate, pH7.0, 60 min preincubation, 120 min reaction, room temperature. In a few lines:
(§1)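 TR-FRET readout: 665/620 nm ratio from Eu-cryptate anti-pRb(Ser780) antibody plus streptavidin-XL665, converted to % inhibition and fitted (4-parameter logistic) for IC50. Reactions used 0.15 μM biotinylated Rb (Ser780) substrate, compound 0–10 μM, 60 min enzyme–compound preincubation, then 120 min reaction at room temperature.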
(TR-FRET usually uses a lanthanide donor and a delayed reading to cut background.)

Another experiment addresses CDK2/Cyclin E1 (Homo sapiens, UniProt P24941). Nature of the experiment: CDK2/Cyclin E1 Biochemical Assay (TR-FRET), 0.060 mM ATP. Particulars: 0.15 μM Rb (Ser780)-biotin substrate, pH7.0, 60 min preincubation, 120 min reaction, room temperature. In a few lines:
as §1

CDK1/Cyclin B1, sequence (P06493 whole entry): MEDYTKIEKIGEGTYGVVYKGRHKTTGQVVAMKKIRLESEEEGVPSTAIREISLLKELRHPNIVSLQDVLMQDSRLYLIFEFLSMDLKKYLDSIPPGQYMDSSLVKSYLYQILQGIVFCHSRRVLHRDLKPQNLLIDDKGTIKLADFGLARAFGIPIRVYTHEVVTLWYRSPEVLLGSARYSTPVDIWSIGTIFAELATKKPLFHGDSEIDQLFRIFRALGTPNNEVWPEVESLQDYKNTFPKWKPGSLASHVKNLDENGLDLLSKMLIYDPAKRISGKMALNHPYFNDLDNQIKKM
CDK1/Cyclin B1, sequence (P14635 whole entry partner): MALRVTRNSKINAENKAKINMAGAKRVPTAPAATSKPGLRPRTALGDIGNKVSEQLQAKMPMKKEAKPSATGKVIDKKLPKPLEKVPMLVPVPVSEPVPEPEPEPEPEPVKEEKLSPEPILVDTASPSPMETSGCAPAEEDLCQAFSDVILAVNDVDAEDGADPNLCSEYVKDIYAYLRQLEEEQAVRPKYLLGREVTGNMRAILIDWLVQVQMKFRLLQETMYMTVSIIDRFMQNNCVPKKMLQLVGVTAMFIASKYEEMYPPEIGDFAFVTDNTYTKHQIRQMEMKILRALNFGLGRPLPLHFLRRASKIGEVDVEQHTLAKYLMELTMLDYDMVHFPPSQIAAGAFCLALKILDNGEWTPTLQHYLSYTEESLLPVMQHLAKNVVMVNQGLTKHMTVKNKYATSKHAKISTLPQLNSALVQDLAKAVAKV

In the case of `COCC(C)(C)NC(=O)O[C@H]1CC[C@@H](c2cc(Nc3ccc4c(c3F)CS(=O)(=O)N4CCO)n[nH]2)C1` (relative stereo) [Example 394, cis-3-(3-((4-fluoro-1-(2-hydroxyethyl)-2,2-dioxido-1,3-dihydrobenzo[c]isothiazol-5-yl)amino)-1H-pyrazol-5-yl)cyclopentyl(1-methoxy-2-methylpropan-2-yl)carbamate], the pIC50 (commonly the IC50 on a negative log10 scale, so that one unit is a factor of ten) against CDK1/Cyclin B1 was 7.35; against CDK2/Cyclin E1, 8.96.

For `Cc1nc2c(cc1Nc1cc([C@@H]3CC[C@H](OC(=O)NC(C)C)C3)[nH]n1)CNS2(=O)=O` (relative stereo) [Example 396, cis-3-(3-((6-methyl-1,1-dioxido-2,3-dihydroisothiazolo[5,4-b]pyridin-5-yl)amino)-1H-pyrazol-5-yl)cyclopentyl isopropylcarbamate], the pIC50 against CDK1/Cyclin B1 is 6.12; against CDK2/Cyclin E1 it was 8.01.

`CC1(NC(=O)O[C@H]2CC[C@@H](c3cc(Nc4ccc5c(c4)CS(=O)(=O)N5)n[nH]3)C2)CCOCC1` (relative stereo) [Example 398, cis-3-(3-((2,2-dioxido-1,3-dihydrobenzo[c]isothiazol-5-yl)amino)-1H-pyrazol-5-yl)cyclopentyl(4-methyltetrahydro-2H-pyran-4-yl)carbamate]: the values for the pIC50 at CDK1/Cyclin B1 and against CDK2/Cyclin E1 were 7.28 and 8.31, respectively.

With `COCC(C)(C)NC(=O)O[C@H]1CC[C@@H](c2cc(Nc3ccc4c(c3F)CS(=O)(=O)N4C3CC3)n[nH]2)C1` (relative stereo) [Example 401, cis-3-(3-((1-cyclopropyl-4-fluoro-2,2-dioxido-1,3-dihydrobenzo[c]isothiazol-5-yl)amino)-1H-pyrazol-5-yl)cyclopentyl(1-methoxy-2-methylpropan-2-yl)carbamate], the values for the pIC50 on CDK1/Cyclin B1 and against CDK2/Cyclin E1 were 6.98 and 8.68, respectively.

Turning to `CC1(NC(=O)O[C@H]2CC[C@@H](c3cc(Nc4ccc5c(c4F)CS(=O)(=O)N5)n[nH]3)C2)CCOCC1` (relative stereo) [Example 402, cis-3-(3-((4-fluoro-2,2-dioxido-1,3-dihydrobenzo[c]isothiazol-5-yl)amino)-1H-pyrazol-5-yl)cyclopentyl(4-methyltetrahydro-2H-pyran-4-yl)carbamate], the negative-log IC50 (pIC50) on CDK1/Cyclin B1 was 7.00; against CDK2/Cyclin E1, 8.29.

With `CC(C)NC(=O)O[C@H]1CC[C@@H](c2cc(Nc3ccc4c(c3O)CNS4(=O)=O)n[nH]2)C1` (relative stereo) [Example 405, cis-3-(3-((4-hydroxy-1,1-dioxido-2,3-dihydrobenzo[d]isothiazol-5-yl)amino)-1H-pyrazol-5-yl)cyclopentyl isopropylcarbamate], the results for the negative-log IC50 (pIC50) on CDK1/Cyclin B1 and against CDK2/Cyclin E1 were 6.19 and 8.00, respectively.

Consider `CC(C)NC(=O)O[C@H]1CC[C@@H](c2cc(Nc3c(F)cc4c(c3O)CNS4(=O)=O)n[nH]2)C1` (relative stereo) [Example 406, cis-3-(3-((6-fluoro-4-hydroxy-1,1-dioxido-2,3-dihydrobenzo[d]isothiazol-5-yl)amino)-1H-pyrazol-5-yl)cyclopentyl isopropylcarbamate], for which the figures for the pIC50 at CDK1/Cyclin B1 and on CDK2/Cyclin E1 were < 5.00 and 6.22, respectively.

Take `CC1(NC(=O)O[C@H]2CC[C@@H](c3cc(Nc4ccc5c(c4F)CS(=O)(=O)N5CC(F)(F)F)n[nH]3)C2)CCOC1` (relative stereo) [Example 407, cis-3-(3-((4-fluoro-2,2-dioxido-1-(2,2,2-trifluoroethyl)-1,3-dihydrobenzo[c]isothiazol-5-yl)amino)-1H-pyrazol-5-yl)cyclopentyl(3-methyltetrahydrofuran-3-yl)carbamate]: the pIC50 on CDK1/Cyclin B1 was 6.89; at CDK2/Cyclin E1, 8.80.

Regarding `O=C(NC1(CO)CCC1)O[C@H]1CC[C@@H](c2cc(Nc3cc4c(cc3F)NS(=O)(=O)C4)n[nH]2)C1` (relative stereo) [Example 408, cis-3-(3-((6-fluoro-2,2-dioxido-1,3-dihydrobenzo[c]isothiazol-5-yl)amino)-1H-pyrazol-5-yl)cyclopentyl(1-(hydroxymethyl)cyclobutyl)carbamate], the negative-log IC50 (pIC50) at CDK1/Cyclin B1 was 5.96; against CDK2/Cyclin E1, 7.46.

As for `CC1(NC(=O)O[C@H]2CC[C@@H](c3cc(Nc4ccc5c(c4F)CS(=O)(=O)N5CC(F)(F)F)n[nH]3)C2)COC1` (relative stereo) [Example 409, cis-3-(3-((4-fluoro-2,2-dioxido-1-(2,2,2-trifluoroethyl)-1,3-dihydrobenzo[c]isothiazol-5-yl)amino)-1H-pyrazol-5-yl)cyclopentyl(3-methyloxetan-3-yl)carbamate], the values for the pIC50 against CDK1/Cyclin B1 and at CDK2/Cyclin E1 were 6.68 and 8.24, respectively.

For `CC(CC(F)(F)F)NC(=O)O[C@H]1CC[C@@H](c2cc(Nc3cc4c(cc3F)S(=O)(=O)NC4)n[nH]2)C1` (relative stereo) [Example 412, cis-3-(3-((6-fluoro-1,1-dioxido-2,3-dihydrobenzo[d]isothiazol-5-yl)amino)-1H-pyrazol-5-yl)cyclopentyl(4,4,4-trifluorobutan-2-yl)carbamate], the pIC50 against CDK1/Cyclin B1 is 6.83; on CDK2/Cyclin E1 it was 8.74.

For `CC(NC(=O)O[C@H]1CC[C@@H](c2cc(Nc3cc4c(cc3F)S(=O)(=O)NC4)n[nH]2)C1)C1CC1` (relative stereo) [Example 413, cis-3-(3-((6-fluoro-1,1-dioxido-2,3-dihydrobenzo[d]isothiazol-5-yl)amino)-1H-pyrazol-5-yl)cyclopentyl(1-cyclopropylethyl)carbamate], the pIC50 against CDK1/Cyclin B1 was 6.39; against CDK2/Cyclin E1, 8.46.

With `O=C(NCC1CC1)O[C@H]1CC[C@@H](c2cc(Nc3ccc4c(c3F)CNS4(=O)=O)n[nH]2)C1` (relative stereo) [Example 414, cis-3-(3-((4-fluoro-1,1-dioxido-2,3-dihydrobenzo[d]isothiazol-5-yl)amino)-1H-pyrazol-5-yl)cyclopentyl(cyclopropylmethyl)carbamate], the pIC50 was 6.63 on CDK1/Cyclin B1 and 8.14 against CDK2/Cyclin E1.

`O=C(O[C@H]1CC[C@@H](c2cc(Nc3ccc4c(c3F)CS(=O)(=O)N4)n[nH]2)C1)N1CCOCC1` (relative stereo) [Example 415, cis-3-(3-((4-fluoro-2,2-dioxido-1,3-dihydrobenzo[c]isothiazol-5-yl)amino)-1H-pyrazol-5-yl)cyclopentyl morpholine-4-carboxylate]: the pIC50 against CDK1/Cyclin B1 was 6.15; at CDK2/Cyclin E1 it was 7.59.

For `COCC(C)(C)NC(=O)O[C@H]1CC[C@@H](c2cc(Nc3ccc4c(c3F)CS(=O)(=O)N4CC(F)(F)F)n[nH]2)C1` (relative stereo) [Example 416, cis-3-(3-((4-fluoro-2,2-dioxido-1-(2,2,2-trifluoroethyl)-1,3-dihydrobenzo[c]isothiazol-5-yl)amino)-1H-pyrazol-5-yl)cyclopentyl(1-methoxy-2-methylpropan-2-yl)carbamate], the pIC50 against CDK1/Cyclin B1 was 7.17; on CDK2/Cyclin E1, 8.68.

In the case of `O=C(NC1(CO)CCC1)O[C@H]1CC[C@@H](c2cc(Nc3ccc4c(c3)CS(=O)(=O)N4)n[nH]2)C1` (relative stereo) [Example 417, cis-3-(3-((2,2-dioxido-1,3-dihydrobenzo[c]isothiazol-5-yl)amino)-1H-pyrazol-5-yl)cyclopentyl(1-(hydroxymethyl)cyclobutyl)carbamate], the pIC50 was 7.74 at CDK1/Cyclin B1 and 8.52 at CDK2/Cyclin E1.

Turning to `O=C(NC1(CO)CCC1)O[C@H]1CC[C@@H](c2cc(Nc3ccc4c(c3F)CS(=O)(=O)N4)n[nH]2)C1` (relative stereo) [Example 418, cis-3-(3-((4-fluoro-2,2-dioxido-1,3-dihydrobenzo[c]isothiazol-5-yl)amino)-1H-pyrazol-5-yl)cyclopentyl(1-(hydroxymethyl)cyclobutyl)carbamate], the pIC50 against CDK1/Cyclin B1 was 7.49; on CDK2/Cyclin E1, 8.70.

On to `CC(C)NC(=O)O[C@H]1CC[C@@H](c2cc(Nc3cc4c(cc3F)CNS4(=O)=O)n[nH]2)C1` (single isomer, unassigned) [Example 1a, cis-3-(3-((5-fluoro-1,1-dioxido-2,3-dihydrobenzo[d]isothiazol-6-yl)amino)-1H-pyrazol-5-yl)cyclopentyl isopropylcarbamate], for which the pIC50 against CDK1/Cyclin B1 was 6.07; on CDK2/Cyclin E1, 7.66.

For the molecule `CC(C)NC(=O)O[C@H]1CC[C@@H](c2cc(Nc3cc4c(cc3F)CNS4(=O)=O)n[nH]2)C1` (single isomer, unassigned) [Example 1b, cis-3-(3-((5-fluoro-1,1-dioxido-2,3-dihydrobenzo[d]isothiazol-6-yl)amino)-1H-pyrazol-5-yl)cyclopentyl isopropylcarbamate], the pIC50 at CDK1/Cyclin B1 was 6.59; on CDK2/Cyclin E1, 7.74.

On to `CC(C)NC(=O)O[C@H]1CC[C@@H](c2cc(Nc3ccc4c(c3)S(=O)(=O)NC4C)[nH]n2)C1` (single isomer, unassigned) [Example 5a, cis-3-(5-((3-methyl-1,1-dioxido-2,3-dihydrobenzo[d]isothiazol-6-yl)amino)-1H-pyrazol-3-yl)cyclopentyl isopropylcarbamate], for which the pIC50 on CDK1/Cyclin B1 is 7.31; against CDK2/Cyclin E1 it was 8.66.

On to `CC(C)NC(=O)O[C@H]1CC[C@@H](c2cc(Nc3ccc4c(c3)S(=O)(=O)NC4C)[nH]n2)C1` (single isomer, unassigned) [Example 5b, cis-3-(5-((3-methyl-1,1-dioxido-2,3-dihydrobenzo[d]isothiazol-6-yl)amino)-1H-pyrazol-3-yl)cyclopentyl isopropylcarbamate], for which the pIC50 on CDK1/Cyclin B1 is 7.85; against CDK2/Cyclin E1, 9.00.

Consider `CC(C)NC(=O)O[C@H]1CC[C@@H](c2cc(Nc3ccc4c(c3)S(=O)(=O)NC4C)[nH]n2)C1` (single isomer, unassigned) [Example 5c, cis-3-(5-((3-methyl-1,1-dioxido-2,3-dihydrobenzo[d]isothiazol-6-yl)amino)-1H-pyrazol-3-yl)cyclopentyl isopropylcarbamate], for which the values for the pIC50 against CDK1/Cyclin B1 and on CDK2/Cyclin E1 were 7.02 and 8.38, respectively.
